Results: patent US20250034147A1, “MDM2 DEGRADERS AND USES THEREOF” (Kymera Therapeutics, Inc., priority 2021, published 2025)

Key:
HiBiT-tagged MDM2 = biological target: T1, HiBiT-tagged MDM2 (Homo sapiens, UniProt Q00987); test: MDM2 HiBit HEK293T degradation; assay type: cell-based; settings: HEK293T cells stably expressing C-terminally HiBiT-tagged MDM2; 4 h; read-out: MDM2 HiBit HEK293T degradation 4 h: Average external-Abs DC50
T1 construct: expressed in transfected cells
How it was run: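 Degradation was measured in HEK293T cells stably expressing C-terminally HiBiT-tagged MDM2, a pool selected with 1 microgram/ml puromycin. A MDM2 tool degrader and HaloPROTAC3 served as positive controls. Potency is reported as DC50 in letter bins.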

RS411 cells = test: Cell Viability CTG Assay; assay type: cell-based; settings: Homo sapiens, RS4-11, CellTiter Glo (CTG) cell viability, read-out: Average external-IC50
How it was run: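 RS411 cells (1000/well) exposed 1 day at 37 °C to compound, 11-point 3-fold dilution from 10 μM top, 0.2% DMSO final. Viability read by CellTiter-Glo luminescence; IC50 reported as letter bins.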

T1 sequence (Q00987 whole entry): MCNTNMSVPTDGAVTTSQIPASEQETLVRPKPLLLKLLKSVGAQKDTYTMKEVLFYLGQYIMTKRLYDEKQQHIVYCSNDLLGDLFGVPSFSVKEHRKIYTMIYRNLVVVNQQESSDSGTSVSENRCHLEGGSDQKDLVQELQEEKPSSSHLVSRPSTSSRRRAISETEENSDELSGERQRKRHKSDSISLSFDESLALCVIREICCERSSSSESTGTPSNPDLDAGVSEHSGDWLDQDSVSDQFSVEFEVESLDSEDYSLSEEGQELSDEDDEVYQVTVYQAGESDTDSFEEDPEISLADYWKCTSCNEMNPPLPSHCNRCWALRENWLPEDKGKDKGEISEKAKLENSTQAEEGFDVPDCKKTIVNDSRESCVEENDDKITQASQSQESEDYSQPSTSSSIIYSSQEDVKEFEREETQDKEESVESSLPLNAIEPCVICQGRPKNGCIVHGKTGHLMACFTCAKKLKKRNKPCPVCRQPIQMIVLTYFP

| DC50 (HiBiT-tagged MDM2) [nM] | IC50 (RS411 cells) [nM] | Compound |
| --- | --- | --- |
| < 10 | 5 to 50 | Cn1c(=O)n(C2CCC(=O)NC2=O)c2ccc(CCCN3CCN(C[C@H]4CC[C@H](NC(=O)[C@@H]5NC6(CCCCC6)[C@@]6(C(=O)Nc7cc(Cl)ccc76)[C@H]5c5cccc(Cl)c5F)CC4)C(=O)C3)cc21 (some centres unmarked) [I-54] |
| 10 to 100 | > 500 | Cc1ccc2c(c1)NC(=O)[C@]21[C@@H](c2cccc(C)c2F)[C@H](C(=O)N[C@H]2CC[C@H](C(=O)N3CCN(CCCc4ccc5c(c4)n(C)c(=O)n5C4CCC(=O)NC4=O)CC3)CC2)NC12CCCCC2 (some centres unmarked) [I-55] |
| < 10 | < 5 | Cc1ccc2c(c1)NC(=O)[C@]21[C@@H](c2cccc(Cl)c2F)[C@H](C(=O)N[C@H]2CC[C@H](C(=O)N3CCN(CCCc4ccc5c(c4)n(C)c(=O)n5C4CCC(=O)NC4=O)CC3)CC2)NC12CCCCC2 (some centres unmarked) [I-57] |
| < 10 | 5 to 50 | Cn1c(=O)n(C2CCC(=O)NC2=O)c2ccc(C(=O)N3CC(OC4CN(C[C@H]5CC[C@H](NC(=O)[C@@H]6NC7(CCCCC7)[C@@]7(C(=O)Nc8cc(Cl)ccc87)[C@H]6c6cccc(Cl)c6F)CC5)C4)C3)cc21 (some centres unmarked) [I-58] |
| < 10 | 5 to 50 | Cn1c(=O)n(C2CCC(=O)NC2=O)c2ccc(CN3CC(OC4CN(C[C@H]5CC[C@H](NC(=O)[C@@H]6NC7(CCCCC7)[C@@]7(C(=O)Nc8cc(Cl)ccc87)[C@H]6c6cccc(Cl)c6F)CC5)C4)C3)cc21 (some centres unmarked) [I-59] |
| < 10 | 5 to 50 | Cn1c(=O)n(C2CCC(=O)NC2=O)c2ccc(CN3CCN(C[C@H]4CC[C@H](NC(=O)[C@@H]5NC6(CCCCC6)[C@@]6(C(=O)Nc7cc(Cl)ccc76)[C@H]5c5cccc(Cl)c5F)CC4)CC3)cc21 (some centres unmarked) [I-69] |
| < 10 | < 5 | Cn1c(=O)n(C2CCC(=O)NC2=O)c2ccc(N3CCN(CC4CCN(C[C@H]5CC[C@H](NC(=O)[C@@H]6NC7(CCCCC7)[C@@]7(C(=O)Nc8cc(Cl)ccc87)[C@H]6c6cccc(Cl)c6F)CC5)CC4)CC3)cc21 (some centres unmarked) [I-70] |
| < 10 | < 5 | Cn1c(=O)n(C2CCC(=O)NC2=O)c2ccc(CCCN3CCN(C[C@H]4CC[C@H](NC(=O)[C@@H]5NC6(CCC(C)(C)CC6)[C@@]6(C(=O)Nc7cc(Cl)ccc76)[C@H]5c5cccc(Cl)c5F)CC4)CC3)cc21 (some centres unmarked) [I-72] |
| < 10 | 5 to 50 | CN1[C@@H](C(=O)N[C@H]2CC[C@H](CN3CC4(CCN(CCc5ccc6c(c5)n(C)c(=O)n6C5CCC(=O)NC5=O)CC4)C3)CC2)[C@H](c2cccc(Cl)c2F)[C@]2(C(=O)Nc3cc(Cl)ccc32)C12CCCCC2 (some centres unmarked) [I-75] |
| < 10 | < 5 | Cn1c(=O)n(C2CCC(=O)NC2=O)c2ccc(CCN3CCN(CCCN4CCC(NC(=O)[C@@H]5NC6(CCCCC6)[C@@]6(C(=O)Nc7cc(Cl)ccc76)[C@H]5c5cccc(Cl)c5F)CC4)CC3)cc21 (some centres unmarked) [I-78] |
| < 10 | > 500 | CCCc1ccc2c(c1)NC(=O)[C@]21[C@@H](c2cccc(Cl)c2F)[C@H](C(=O)N[C@H]2CC[C@H](CN3CCC(c4ccc5c(c4)n(C)c(=O)n5C4CCC(=O)NC4=O)CC3)CC2)NC12CCCCC2 (some centres unmarked) [I-79] |
| 10 to 100 | > 500 | Cn1c(=O)n(C2CCC(=O)NC2=O)c2ccc(C3CCN(C[C@H]4CC[C@H](NC(=O)[C@@H]5NC6(CCCCC6)[C@@]6(C(=O)Nc7cc(Cl)ccc76)[C@H]5c5cccc(Cl)c5F)CC4)C[C@H]3F)cc21 (some centres unmarked) [I-83] |
| < 10 | 5 to 50 | Cn1c(=O)n(C2CCC(=O)NC2=O)c2ccc([C@@H]3CCN(C[C@H]4CC[C@H](NC(=O)[C@@H]5NC6(CCCCC6)[C@@]6(C(=O)Nc7cc(Cl)ccc76)[C@H]5c5cccc(Cl)c5F)CC4)C[C@@H]3F)cc21 (some centres unmarked) [I-85] |
| < 10 | < 5 | Cn1c(=O)n(C2CCC(=O)NC2=O)c2ccc(N3CC4(CCN(C(=O)[C@H]5CC[C@H](NC(=O)[C@@H]6NC7(CCCCC7)[C@@]7(C(=O)Nc8cc(Cl)ccc87)[C@H]6c6cccc(Cl)c6F)CC5)CC4)C3)cc21 (some centres unmarked) [I-86] |

Second part, the compound before the results:

| Compound | DC50 (HiBiT-tagged MDM2) [nM] | IC50 (RS411 cells) [nM] |
| --- | --- | --- |
| COc1cc2c(cc1OC(C)C)[C@H](c1ccc(Cl)cc1)N(c1ccc(N(C)CC3CCN(CCCc4ccc5c(c4)n(C)c(=O)n5C4CCC(=O)NC4=O)CC3)cc1)C(=O)C2 (some centres unmarked) [I-53] | 10 to 100 | < 5 |
| Cn1c(=O)n(C2CCC(=O)NC2=O)c2ccc(CCCN3CCN(C[C@H]4CC[C@H](NC(=O)[C@@H]5NC6(CCC(C)(C)CC6)[C@@]6(C(=O)Nc7cc(Cl)ccc76)[C@H]5c5ccnc(Cl)c5F)CC4)C(=O)C3)cc21 (some centres unmarked) [I-56] | < 10 | < 5 |
| COc1cc2c(cc1OC(C)C)[C@H](c1ccc(Cl)cc1)N(c1ccc(N(C)C[C@H]3CC[C@H](N4CCN(Cc5ccc6c(c5)n(C)c(=O)n6C5CCC(=O)NC5=O)CC4)CC3)cc1)C(=O)C2 (some centres unmarked) [I-60] | < 10 | < 5 |
| COc1cc2c(cc1OC(C)C)C(c1ccc(Cl)cc1)N(C1CCC(N(C)CC3CCN(CCCCCCc4ccc5c(c4)n(C)c(=O)n5C4CCC(=O)NC4=O)CC3)CC1)C(=O)C2 (centres unmarked) [I-61] | > 1000 | > 500 |
| COc1cc2c(cc1OC(C)C)[C@H](c1ccc(Cl)cc1)N(c1ccc(N(C)CC3CCN(c4ccc5c(c4)n(C)c(=O)n5C4CCC(=O)NC4=O)CC3)cc1)C(=O)C2 (some centres unmarked) [I-62] | < 10 | 5 to 50 |
| COc1cc2c(cc1OC(C)C)[C@H](c1ccc(Cl)cc1)N(c1ccc(N(C)C[C@H]3CC[C@H](N4CCN(CCc5cccc6c5n(C)c(=O)n6C5CCC(=O)NC5=O)CC4)CC3)cc1)C(=O)C2 (some centres unmarked) [I-63] | < 10 | 5 to 50 |
| CC(C)[C@@H](CS(=O)(=O)C(C)C)N1C(=O)[C@@](C)(CC(=O)N[C@H]2CC[C@H](CN3CCN(CCCc4ccc5c(c4)n(C)c(=O)n5C4CCC(=O)NC4=O)CC3)CC2)C[C@H](c2cccc(Cl)c2)[C@H]1c1ccc(Cl)cc1 (some centres unmarked) [I-64] | 10 to 100 | 5 to 50 |
| COc1cc2c(cc1OC(C)C)[C@H](c1ccc(Cl)cc1)N(c1ccc(N(C)C[C@H]3CC[C@H](N4C[C@@H]5C[C@H]4CN5CCc4ccc5c(c4)n(C)c(=O)n5C4CCC(=O)NC4=O)CC3)cc1)C(=O)C2 (some centres unmarked) [I-65] | 10 to 100 | 5 to 50 |
| CC1(C)CCC2(CC1)N[C@@H](C(=O)N[C@H]1CC[C@H](CN3CCN(CCCc4cccn5c(N6CCC(=O)NC6=O)cnc45)CC3)CC1)[C@H](c1ccnc(Cl)c1F)[C@]21C(=O)Nc2cc(Cl)ccc21 [I-67] | < 10 | 5 to 50 |
| COc1cc2c(cc1OC(C)C)[C@H](c1ccc(Cl)cc1)N(c1ccc(N(C)C[C@H]3CC[C@H](N4CCN(c5ccc6c(c5)n(C)c(=O)n6C5CCC(=O)NC5=O)CC4)CC3)cc1)C(=O)C2 (stereo partly drawn) [I-71, 3-[5-[4-[4-[[4-[(1S)-1-(4-chlorophenyl)-7-isopropoxy-6-methoxy-3-oxo-1,4-dihydroisoquinolin-2-yl]-N-methyl-anilino]methyl]cyclohexyl]piperazin-1-yl]-3-methyl-2-oxo-benzimidazol-1-yl]piperidine-2,6-dione] | < 10 | < 5 |
| COc1cc2c(cc1OC(C)C)[C@H](c1ccc(Cl)cc1)N(c1ccc(N(C)C[C@H]3CC[C@H](N4CCC(c5ccc6c(c5)n(C)c(=O)n6C5CCC(=O)NC5=O)CC4)CC3)cc1)C(=O)C2 (some centres unmarked) [I-73] | < 10 | < 5 |
| COc1cc2c(cc1OC(C)C)[C@H](c1ccc(Cl)cc1)N(c1ccc(N(C)C[C@H]3CC[C@H](c4ccc5c(c4)n(C)c(=O)n5C4CCC(=O)NC4=O)CC3)cc1)C(=O)C2 (some centres unmarked) [I-74] | < 10 | 5 to 50 |
| Cn1c(=O)n(C2CCC(=O)NC2=O)c2ccc(C3CCN(C[C@@H]4CC[C@@H](NC(=O)[C@@H]5NC6(CCC(C)(C)CC6)[C@@]6(C(=O)Nc7cc(Cl)ccc76)[C@H]5c5ccnc(Cl)c5F)CO4)CC3)cc21 (some centres unmarked) [I-76] | < 10 | < 5 |
| Cn1c(=O)n(C2CCC(=O)NC2=O)c2ccc(C#CC3CCN(C[C@H]4CC[C@H](NC(=O)[C@@H]5NC6(CCC(C)(C)CC6)[C@@]6(C(=O)Nc7cc(Cl)ccc76)[C@H]5c5ccnc(Cl)c5F)CC4)C(=O)C3)cc21 (some centres unmarked) [I-77] | < 10 | 5 to 50 |
| Cn1c(=O)n(C2CCC(=O)NC2=O)c2ccc(C3CCN(S(=O)(=O)NC(=O)[C@H]4CC[C@H](NC(=O)[C@@H]5NC6(CCCCC6)[C@@]6(C(=O)Nc7cc(Cl)ccc76)[C@H]5c5cccc(Cl)c5F)CC4)CC3)cc21 (some centres unmarked) [I-80] | < 10 | < 5 |
| Cc1ccc2c(c1)NC(=O)[C@]21[C@@H](c2cccc(Cl)c2F)[C@H](C(=O)N[C@H]2CC[C@H](C(=O)N3CCC(c4ccc5c(c4)n(C)c(=O)n5C4CCC(=O)NC4=O)CC3)CC2)NC12CCCCC2 (some centres unmarked) [I-81] | < 10 | < 5 |
| O=C(O)CCn1c(=O)n(C2CCC(=O)NC2=O)c2ccc(C3CCN(C(=O)[C@H]4CC[C@H](NC(=O)[C@@H]5NC6(CCCCC6)[C@@]6(C(=O)Nc7cc(Cl)ccc76)[C@H]5c5cccc(Cl)c5F)CC4)CC3)cc21 (some centres unmarked) [I-82] | 10 to 100 | 5 to 50 |
